According to PubChem BioAssay (NCI):
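Where inhibition never reached the appropriate level, the endpoint shown equals the highest concentration tested. Otherwise, values were interpolated linearly from a five-concentration, 48-hour dose response in 96-well plates. Abbreviation: GI50, concentration required for 50% inhibition of growth. TGI denotes the concentration required for complete inhibition of growth.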

Legend:
Experiment in all cases: NCI anticancer screen, dose series, 48 h
HL-60(TB) leukemia = test system: HL-60(TB) leukemia
PC-3 prostate = test system: PC-3 prostate
IGROV1 ovarian = test system: IGROV1 ovarian
786-0 renal = test system: 786-0 renal
RPMI-8226 leukemia = test system: RPMI-8226 leukemia
LOX IMVI melanoma = test system: LOX IMVI melanoma
MOLT-4 leukemia = test system: MOLT-4 leukemia
CAKI-1 renal = test system: CAKI-1 renal
NCI-H460 lung = test system: NCI-H460 lung
OVCAR-3 ovarian = test system: OVCAR-3 ovarian
SF-295 CNS = test system: SF-295 CNS
BT-549 breast = test system: BT-549 breast
HCT-116 colon = test system: HCT-116 colon
OVCAR-8 ovarian = test system: OVCAR-8 ovarian
RXF 393 renal = test system: RXF 393 renal
NCI-H23 lung = test system: NCI-H23 lung
MCF7 breast = test system: MCF7 breast
M14 melanoma = test system: M14 melanoma
DU-145 prostate = test system: DU-145 prostate
SF-539 CNS = test system: SF-539 CNS
NCI-H522 lung = test system: NCI-H522 lung
ACHN renal = test system: ACHN renal
T-47D breast = test system: T-47D breast
CCRF-CEM leukemia = test system: CCRF-CEM leukemia
EKVX NSCLC = test system: EKVX NSCLC
KM12 colon = test system: KM12 colon
HOP-92 NSCLC = test system: HOP-92 NSCLC
TK-10 renal = test system: TK-10 renal
U251 CNS = test system: U251 CNS

Q: What does the source list for `Nc1cc(-c2ccccc2)n(C(=O)Nc2ccc(Oc3ccccc3)cc2)n1`?
A: GI50 (HL-60(TB) leukemia): 47.8 µM; TGI (HL-60(TB) leukemia): > 100 µM; GI50 (PC-3 prostate): > 100 µM; TGI (PC-3 prostate): > 100 µM; GI50 (IGROV1 ovarian): 36 µM; TGI (IGROV1 ovarian): > 100 µM; GI50 (786-0 renal): 29.5 µM; TGI (786-0 renal): > 100 µM; GI50 (RPMI-8226 leukemia): 19.7 µM; TGI (RPMI-8226 leukemia): > 100 µM; GI50 (LOX IMVI melanoma): > 100 µM; TGI (LOX IMVI melanoma): > 100 µM; GI50 (MOLT-4 leukemia): 50.5 µM; TGI (MOLT-4 leukemia): > 100 µM; GI50 (CAKI-1 renal): 28.9 µM; TGI (CAKI-1 renal): 77.2 µM; GI50 (NCI-H460 lung): 69 µM; TGI (NCI-H460 lung): > 100 µM; GI50 (OVCAR-3 ovarian): 31.3 µM; TGI (OVCAR-3 ovarian): > 100 µM; GI50 (SF-295 CNS): 40.2 µM; TGI (SF-295 CNS): > 100 µM; GI50 (BT-549 breast): 86.2 µM; TGI (BT-549 breast): > 100 µM; GI50 (HCT-116 colon): 53.5 µM; TGI (HCT-116 colon): > 100 µM; GI50 (OVCAR-8 ovarian): 20.1 µM; TGI (OVCAR-8 ovarian): 57.1 µM; GI50 (RXF 393 renal): 23 µM; TGI (RXF 393 renal): 68.3 µM; GI50 (NCI-H23 lung): > 100 µM; TGI (NCI-H23 lung): > 100 µM; GI50 (MCF7 breast): 61.7 µM; TGI (MCF7 breast): > 100 µM; GI50 (M14 melanoma): > 100 µM; TGI (M14 melanoma): > 100 µM; GI50 (DU-145 prostate): > 100 µM; TGI (DU-145 prostate): > 100 µM; GI50 (SF-539 CNS): 30.1 µM; TGI (SF-539 CNS): > 100 µM; GI50 (NCI-H522 lung): 54.7 µM; TGI (NCI-H522 lung): > 100 µM; GI50 (ACHN renal): 34.9 µM; TGI (ACHN renal): > 100 µM; GI50 (T-47D breast): 86.2 µM; TGI (T-47D breast): > 100 µM; GI50 (CCRF-CEM leukemia): 18.9 µM; TGI (CCRF-CEM leukemia): 93.3 µM; GI50 (EKVX NSCLC): > 100 µM; TGI (EKVX NSCLC): > 100 µM; GI50 (KM12 colon): > 100 µM; TGI (KM12 colon): > 100 µM; GI50 (HOP-92 NSCLC): 24.2 µM; TGI (HOP-92 NSCLC): > 100 µM; GI50 (TK-10 renal): 69.7 µM; TGI (TK-10 renal): > 100 µM; GI50 (U251 CNS): 32.1 µM
